Measured values: patent US9409905B2, “Antibacterial compounds and methods for use” (PTC THERAPEUTICS, INC., priority 2011, dated 2016)
Converted amounts (≈) assume the structure as drawn.

Tests used:
[1] = system: Escherichia coli (E. coli) BAS849; assay: Antibacterial activity, microbroth dilution MIC (Table 1); format: cell-based; settings: microbroth dilution, super sensitive Gram-negative E. coli BAS849, read-out: MIC, BAS849
In short: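 Microbroth dilution was used. MIC, in μg/mL, is the lowest drug concentration preventing macroscopically visible growth under the test conditions.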

[2] = system: Staphylococcus aureus (S. aureus) 29213; assay: as above; format: cell-based; settings: microbroth dilution, Gram-positive S. aureus 29213, read-out: MIC, 29213
In short: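 Broth microdilution against S. aureus 29213, E. coli 25922 and hypersensitive E. coli BAS849. MIC in μg/mL is the lowest drug concentration preventing macroscopically visible growth under test conditions.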

[3] = system: E. coli 25922; assay: as above; format: cell-based, Escherichia coli; settings: Escherichia coli; microbroth dilution; control Gram-negative E. coli 25922 strain; read-out: MIC, 25922
In short: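 Each strain is exposed to test compound in a microbroth dilution series; visible growth is scored macroscopically, and the lowest growth-free concentration is recorded as MIC in μg/mL.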

[4] = system: E. coli LZ3111; assay: Antibacterial activity, MIC, quinolone resistant strain (Table 2); format: cell-based; settings: Escherichia coli, LZ3111, read-out: MIC LZ3111
In short: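 MIC values (μg/mL) came from a microbroth dilution assay, scored as the lowest drug concentration at which no growth was visible by eye.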

[5] = system: E. coli ELZ4000; assay: Antibacterial activity, MIC, multi-drug resistant clinical isolate (Table 3); format: cell-based; settings: Escherichia coli, ELZ4000, read-out: MIC ELZ4000
In short: (§1)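 Compounds were serially diluted in broth microdilution format and growth was scored visually; the MIC is the lowest concentration at which no macroscopically visible growth occurred, expressed in μg/mL.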

[6] = system: E. coli ELZ4251; assay: as above; format: cell-based; settings: Escherichia coli
In short: as §1

[7] = system: Pseudomonas aeruginosa (P. aeruginosa) 27853; assay: Antibacterial activity, MIC (Table 5); format: cell-based; settings: P. aeruginosa 27853, read-out: MIC, 27853
In short: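 Values are MICs in μg/mL, read as the lowest concentration at which no growth is visible by eye. They were determined by a microbroth dilution method.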

[8] = system: Haemophilus influenzae (H. influenzae) 49247; assay: Antibacterial activity, MIC (Table 6); format: cell-based
Description: (§2) The antibacterial activity from a microbroth dilution method may be presented as the minimum inhibitory concentration (MIC in μg/mL). The MIC value is the lowest concentration of drug which prevents macroscopically visible growth under test conditions.
(§3) Antibacterial activity of test compounds against the Gram-negative bacteria Haemophilus influenzae (H. influenzae) 49247 is shown in Table 6, Moraxella catarrhalis (M. catarrhalis) 25238 is shown in Table 7 and Neisseria meningitidis (N. meningitidis) 13090 is shown in Table 8.

[9] = system: Neisseria meningitidis (N. meningitidis) 13090; assay: Antibacterial activity, MIC (Table 8); format: cell-based
Description: as §2, §3

[10] = system: Acinetobacter baumannii (A. baumannii) BAA747; assay: Antibacterial activity, MIC (Table 4); format: cell-based; settings: A. baumannii BAA747, read-out: MIC, BAA747
In short: (§4)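 Activity was measured by microbroth dilution. The MIC, in μg/mL, is the lowest drug concentration that prevents macroscopically visible growth under the test conditions. The resistant strains are multi-drug resistant clinical isolates.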

[11] = system: Klebsiella pneumoniae (K. pneumoniae) 35657; assay: Antibacterial activity, MIC (Table 4); format: cell-based; settings: K. pneumoniae 35657, read-out: MIC, 35657
In short: as §4

[12] = system: A. baumannii MXX2240; assay: Antibacterial activity, MIC, resistant strain (Table 4); format: cell-based; settings: Acinetobacter baumannii, MXX2240; resistant A. baumannii MMX2240, multi-drug resistant clinical isolate; read-out: MIC, MMX2240
In short: as §4

[13] = system: K. pneumoniae MXX1232; assay: as above; format: cell-based; settings: Klebsiella pneumoniae, MXX1232; resistant K. pneumoniae MMX1232, multi-drug resistant clinical isolate; read-out: MIC, MMX1232
In short: as §4

Work on CCc1cc(C(=O)O)c(=O)[nH]c1-c1ccc2c(c1)CCCN2C [Cpd 1, 5-ethyl-6-(1-methyl-1,2,3,4-tetrahydroquinolin-6-yl)-2-oxo-1,2-dihydropyridine-3-carboxylic acid] yielded an MIC [1] of under 1 µg/mL, an MIC [2] of 12.5 to 150 µg/mL (≈ 40 to 480 µM) and an MIC [3] of 1 to 3.5 µg/mL (≈ 3.2 to 11.2 µM). The MIC [4] was 12.5 to 150 µg/mL (≈ 40 to 480 µM), the MIC [5] was 12.5 to 150 µg/mL (≈ 40 to 480 µM) and the MIC [6] was 12.5 to 150 µg/mL (≈ 40 to 480 µM). For the same compound, the MIC [7] was 12.5 to 150 µg/mL (≈ 40 to 480 µM), the MIC [8] was under 1 µg/mL and the MIC [9] was under 1 µg/mL.

For CCc1c(-c2ccc3c(c2)CCCN3C)[nH]c(=O)c(C(=O)O)c1O [Cpd 2, 5-ethyl-4-hydroxy-6-(1-methyl-1,2,3,4-tetrahydroquinolin-6-yl)-2-oxo-1,2-dihydropyridine-3-carboxylic acid], the MIC [1] was under 1 µg/mL, the MIC [2] was 3.5 to 12.5 µg/mL (≈ 10.7 to 38.1 µM) and the MIC [3] was 12.5 to 150 µg/mL (≈ 38.1 to 457 µM). The MIC [8] was under 1 µg/mL and the MIC [9] was under 1 µg/mL.

Work on CCc1cc(C(=O)O)c(=O)[nH]c1-c1ccc2c(c1)OCCN2C [Cpd 3, 5-ethyl-6-(4-methyl-3,4-dihydro-2H-benzo[b][1,4]oxazin-7-yl)-2-oxo-1,2-dihydropyridine-3-carboxylic acid] yielded an MIC [1] of under 1 µg/mL, an MIC [2] of 12.5 to 150 µg/mL (≈ 39.8 to 477 µM) and an MIC [3] of 1 to 3.5 µg/mL (≈ 3.18 to 11.1 µM). For the same compound, the MIC [4] was 12.5 to 150 µg/mL (≈ 39.8 to 477 µM), the MIC [5] was 12.5 to 150 µg/mL (≈ 39.8 to 477 µM) and the MIC [6] was 12.5 to 150 µg/mL (≈ 39.8 to 477 µM). It also gave an MIC [10] of 3.5 to 12.5 µg/mL (≈ 11.1 to 39.8 µM), an MIC [11] of 3.5 to 12.5 µg/mL (≈ 11.1 to 39.8 µM) and an MIC [12] of 12.5 to 150 µg/mL (≈ 39.8 to 477 µM). The MIC [13] was 12.5 to 150 µg/mL (≈ 39.8 to 477 µM), the MIC [7] was 12.5 to 150 µg/mL (≈ 39.8 to 477 µM) and the MIC [8] was under 1 µg/mL.

In the case of CCc1c(-c2ccc3c(c2)OCCN3C)[nH]c(=O)c(C(=O)O)c1O [Cpd 4, 5-ethyl-4-hydroxy-6-(4-methyl-3,4-dihydro-2H-benzo[b][1,4]oxazin-7-yl)-2-oxo-1,2-dihydropyridine-3-carboxylic acid], the MIC [1] is reported as under 1 µg/mL, the MIC [2] is reported as 3.5 to 12.5 µg/mL (≈ 10.6 to 37.8 µM) and the MIC [3] is reported as 3.5 to 12.5 µg/mL (≈ 10.6 to 37.8 µM). The MIC [4] was 3.5 to 12.5 µg/mL (≈ 10.6 to 37.8 µM), the MIC [5] was 3.5 to 12.5 µg/mL (≈ 10.6 to 37.8 µM) and the MIC [6] was 3.5 to 12.5 µg/mL (≈ 10.6 to 37.8 µM). The MIC [10] was 1 to 3.5 µg/mL (≈ 3.03 to 10.6 µM), the MIC [11] was 3.5 to 12.5 µg/mL (≈ 10.6 to 37.8 µM) and the MIC [12] was 1 to 3.5 µg/mL (≈ 3.03 to 10.6 µM). The MIC [13] was 12.5 to 150 µg/mL (≈ 37.8 to 454 µM), the MIC [7] was 12.5 to 150 µg/mL (≈ 37.8 to 454 µM) and the MIC [8] was under 1 µg/mL.

With CCc1cc(C(=O)O)c(=O)[nH]c1-c1ccc2c(c1)CCN2C [Cpd 5, 5-ethyl-6-(1-methylindolin-5-yl)-2-oxo-1,2-dihydropyridine-3-carboxylic acid] the MIC [1] was under 1 µg/mL, the MIC [2] was 12.5 to 150 µg/mL (≈ 41.9 to 503 µM) and the MIC [3] was 3.5 to 12.5 µg/mL (≈ 11.7 to 41.9 µM). It also gave an MIC [4] of 12.5 to 150 µg/mL (≈ 41.9 to 503 µM), an MIC [5] of 12.5 to 150 µg/mL (≈ 41.9 to 503 µM) and an MIC [6] of 12.5 to 150 µg/mL (≈ 41.9 to 503 µM). For the same compound, the MIC [10] was 1 to 3.5 µg/mL (≈ 3.35 to 11.7 µM), the MIC [11] was 3.5 to 12.5 µg/mL (≈ 11.7 to 41.9 µM) and the MIC [12] was 12.5 to 150 µg/mL (≈ 41.9 to 503 µM). For the same compound, the MIC [13] was 12.5 to 150 µg/mL (≈ 41.9 to 503 µM), the MIC [7] was 12.5 to 150 µg/mL (≈ 41.9 to 503 µM) and the MIC [8] was under 1 µg/mL. It also gave an MIC [9] of under 1 µg/mL.

CCc1c(-c2ccc3c(c2)CCN3C)[nH]c(=O)c(C(=O)O)c1O [Cpd 6, 5-ethyl-4-hydroxy-6-(1-methylindolin-5-yl)-2-oxo-1,2-dihydropyridine-3-carboxylic acid] showed an MIC [1] of under 1 µg/mL, an MIC [2] of 3.5 to 12.5 µg/mL (≈ 11.1 to 39.8 µM) and an MIC [3] of 3.5 to 12.5 µg/mL (≈ 11.1 to 39.8 µM). For the same compound, the MIC [4] was 12.5 to 150 µg/mL (≈ 39.8 to 477 µM), the MIC [5] was 12.5 to 150 µg/mL (≈ 39.8 to 477 µM) and the MIC [6] was 12.5 to 150 µg/mL (≈ 39.8 to 477 µM). It also gave an MIC [10] of 1 to 3.5 µg/mL (≈ 3.18 to 11.1 µM), an MIC [11] of 12.5 to 150 µg/mL (≈ 39.8 to 477 µM) and an MIC [12] of 1 to 3.5 µg/mL (≈ 3.18 to 11.1 µM). It also gave an MIC [13] of 12.5 to 150 µg/mL (≈ 39.8 to 477 µM), an MIC [7] of 12.5 to 150 µg/mL (≈ 39.8 to 477 µM) and an MIC [8] of under 1 µg/mL. For the same compound, the MIC [9] was under 1 µg/mL.

Compound CCc1cc(C(=O)O)c(=O)[nH]c1-c1ccc2c(ccn2CC)c1 [Cpd 9, 5-ethyl-6-(1-ethyl-1H-indol-5-yl)-2-oxo-1,2-dihydropyridine-3-carboxylic acid] has an MIC [1] of under 1 µg/mL, an MIC [2] of 12.5 to 150 µg/mL (≈ 40.3 to 483 µM) and an MIC [3] of 1 to 3.5 µg/mL (≈ 3.22 to 11.3 µM). It also gave an MIC [4] of 12.5 to 150 µg/mL (≈ 40.3 to 483 µM), an MIC [5] of 12.5 to 150 µg/mL (≈ 40.3 to 483 µM) and an MIC [6] of 12.5 to 150 µg/mL (≈ 40.3 to 483 µM). For the same compound, the MIC [8] was under 1 µg/mL.

With CCc1c(-c2ccc3c(ccn3CC)c2)[nH]c(=O)c(C(=O)O)c1O [Cpd 10, 5-ethyl-6-(1-ethyl-1H-indol-5-yl)-4-hydroxy-2-oxo-1,2-dihydropyridine-3-carboxylic acid] the MIC [1] was under 1 µg/mL, the MIC [2] was 1 to 3.5 µg/mL (≈ 3.06 to 10.7 µM) and the MIC [3] was 3.5 to 12.5 µg/mL (≈ 10.7 to 38.3 µM). The MIC [4] was 12.5 to 150 µg/mL (≈ 38.3 to 460 µM), the MIC [5] was 12.5 to 150 µg/mL (≈ 38.3 to 460 µM) and the MIC [6] was 12.5 to 150 µg/mL (≈ 38.3 to 460 µM). The MIC [8] was under 1 µg/mL and the MIC [9] was under 1 µg/mL.
